Measurements: US7932270B2 (Cytokinetics, Inc., priority 2006, dated 2011)

Target: T1, chicken gizzard smooth muscle myosin subfragment-1 chemically crosslinked to cardiac or skeletal actin (Gallus gallus, UniProt P10587)
T1 construct: chicken gizzard smooth muscle myosin subfragment-1; from tissue; host or cells: chicken gizzard
Experiment: Smooth muscle myosin ATPase dose response assay (pyruvate kinase/horseradish peroxidase/pyruvate oxidase-coupled, amplex red fluorescence)
Type: biochemical
Settings: read-out: IC50 Arithmetic Mean
Method in brief: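 Lead-optimization format: ATPase coupled via pyruvate kinase, pyruvate oxidase and peroxidase, pH 7.00 at 22° C, with 0.15 mM ATP, 100 mM KCl, 2 mM MgCl2, 2 mM phosphate and 0.1 mM amplex red (final). Crosslinked S1 titrated empirically for set hydrolysis rate; fluorescence (ex 480/em 615 nm) dose curves fit 4-parameter for IC50.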

T1 sequence (P02607 2-151): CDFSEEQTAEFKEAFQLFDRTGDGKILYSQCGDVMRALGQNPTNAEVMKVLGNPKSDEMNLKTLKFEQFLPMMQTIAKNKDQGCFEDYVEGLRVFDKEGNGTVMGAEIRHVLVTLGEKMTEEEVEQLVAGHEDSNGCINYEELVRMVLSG
T1 sequence (P10587 84-789): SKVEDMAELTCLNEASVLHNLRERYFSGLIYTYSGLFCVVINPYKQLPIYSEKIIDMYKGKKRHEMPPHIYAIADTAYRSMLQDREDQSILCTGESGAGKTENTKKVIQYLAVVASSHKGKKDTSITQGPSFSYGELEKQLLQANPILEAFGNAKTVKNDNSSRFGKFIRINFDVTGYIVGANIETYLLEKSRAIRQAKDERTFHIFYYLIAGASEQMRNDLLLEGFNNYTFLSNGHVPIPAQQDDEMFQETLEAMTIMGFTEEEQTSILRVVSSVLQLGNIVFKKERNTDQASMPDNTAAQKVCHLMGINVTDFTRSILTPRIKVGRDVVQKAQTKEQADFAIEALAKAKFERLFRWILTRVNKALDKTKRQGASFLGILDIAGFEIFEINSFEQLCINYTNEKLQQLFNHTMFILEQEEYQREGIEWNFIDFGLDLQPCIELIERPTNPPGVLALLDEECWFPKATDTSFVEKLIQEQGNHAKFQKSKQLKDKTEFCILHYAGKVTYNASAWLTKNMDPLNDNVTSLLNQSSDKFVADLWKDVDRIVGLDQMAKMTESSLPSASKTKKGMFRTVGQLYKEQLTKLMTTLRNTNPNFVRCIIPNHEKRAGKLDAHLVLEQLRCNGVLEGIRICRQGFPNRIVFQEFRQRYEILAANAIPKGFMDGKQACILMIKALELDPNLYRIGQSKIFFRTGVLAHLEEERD

IC50 [nM]	Compound
629	O=C(NCc1cccnc1)c1ccc(-c2ccc(Cl)cc2)nc1NCCc1ccccn1 [{6-(4-chlorophenyl)-2-[(2-(2-pyridyl)ethyl)amino](3-pyridyl)}-N-(3-pyridylmethyl)carboxamide]
958	CC(=O)NCCNC(=O)c1ccc(-c2ccccc2C#N)nc1NCCc1cccc(F)c1 [N-{2-[(6-(2-cyanophenyl)-2-{[2-(3-fluorophenyl)ethyl]amino}-3-pyridyl)carbonylamino]ethyl}acetamide]
13	N#Cc1ccccc1-c1ccc(C(=O)NC[C@H]2CCC(=O)N2)c(NCCc2cccc(F)c2)n1 [N-[((2R)-5-oxopyrrolidin-2-yl)methyl](6-(2-cyanophenyl)-2-{[2-(3-fluorophenyl)ethyl]amino}(3-pyridyl))carboxamide]
46	O=C(NC[C@H]1CCN1C(=O)CO)c1cc(F)c(-c2cn[nH]c2)nc1NCCc1cccc(F)c1 [N-{[(2R)-1-(2-hydroxyacetyl)azetidin-2-yl]methyl}(5-fluoro-2-{[2-(3-fluorophenyl)ethyl]amino}-6-pyrazol-4-yl(3-pyridyl))carboxamide]
10100	COC(=O)N1CCN(C)C[C@@H]1CNC(=O)c1ccc(-c2ccccc2C#N)nc1NCCc1cccc(F)c1 [methyl (2S)-2-{[(6-(2-cyanophenyl)-2-{[2-(3-fluorophenyl)ethyl]amino}(3-pyridyl))carbonylamino]methyl}-4-methylpiperazinecarboxylate]
352	N#Cc1ccccc1-c1ccc(C(=O)NCC2CCCC(CN)C2)c(NCCc2cccc(F)c2)n1 (centres unmarked) [N-{[3-(aminomethyl)cyclohexyl]methyl}(6-(2-cyanophenyl)-2-{[2-(3-fluorophenyl)ethyl]amino}(3-pyridyl))carboxamide]
2680	CC(=O)N1CCCC[C@@H]1CNC(=O)c1ccc(-c2ccccc2C#N)nc1NCCc1cccc(F)c1 [N-[((2R)-1-acetyl(2-piperidyl))methyl](6-(2-cyanophenyl)-2-{[2-(3-fluorophenyl)ethyl]amino}(3-pyridyl))carboxamide]
4830	O=C(NCc1cccnc1)c1ccc(-c2ccccc2)nc1NCC1CCCO1 (centres unmarked) [{2-[(oxolan-2-ylmethyl)amino]-6-phenyl(3-pyridyl)}-N-(3-pyridylmethyl)carboxamide]
167	Cn1cc(-c2nc(NCCc3cccc(F)c3)c(C(=O)NC[C@H]3CCCN3)cc2Cl)cn1 [N-[((2R)pyrrolidin-2-yl)methyl](5-chloro-2-{[2-(3-fluorophenyl)ethyl]amino}-6-(1-methylpyrazol-4-yl)(3-pyridyl))carboxamide]
1970	O=C(NCc1cccnc1)c1ccc(-c2cccc(Cl)c2)nc1NCCc1ccccn1 [{6-(3-chlorophenyl)-2-[(2-(2-pyridyl)ethyl)amino](3-pyridyl)}-N-(3-pyridylmethyl)carboxamide]
5340	C=Cc1ccccc1-c1ccc(C(=O)NCc2cccnc2)c(NCCc2ccccn2)n1 [{2-[(2-(2-pyridyl)ethyl)amino]-6-(2-vinylphenyl)(3-pyridyl)}-N-(3-pyridylmethyl)carboxamide]
488	CN1CCCC[C@@H]1CNC(=O)c1ccc(-c2ccccc2C#N)nc1NCCc1cccc(F)c1 [N-[((2R)-1-methyl(2-piperidyl))methyl](6-(2-cyanophenyl)-2-{[2-(3-fluorophenyl)ethyl]amino}(3-pyridyl))carboxamide]
40	Cn1cc(-c2nc(NCCc3cccc(F)c3)c(C(=O)NC[C@H]3CCN3C(=O)CCCN)cc2F)cn1 [N-{[(2R)-1-(4-aminobutanoyl)azetidin-2-yl]methyl}(5-fluoro-2-{[2-(3-fluorophenyl)ethyl]amino}-6-(1-methylpyrazol-4-yl)(3-pyridyl))carboxamide]
707	NCc1ncccc1CNC(=O)c1ccc(-c2cnn(CCO)c2)nc1NCCc1cccc(F)c1 [N-{[2-(aminomethyl)(3-pyridyl)]methyl}(2-{[2-(3-fluorophenyl)ethyl]amino}-6-[1-(2-hydroxyethyl)pyrazol-4-yl](3-pyridyl))carboxamide]
790	O=C(NCc1cccnc1)c1ccc(-c2cccc(O)c2)nc1NCCc1ccccn1 [{6-(3-hydroxyphenyl)-2-[(2-(2-pyridyl)ethyl)amino](3-pyridyl)}-N-(3-pyridylmethyl)carboxamide]

Second part, the compound before the results:

Compound	IC50 [nM]
CN[C@H](C)CNC(=O)c1ccc(-c2ccccc2C#N)nc1NCCc1cccc(F)c1 [N-[(2R)-2-(methylamino)propyl](6-(2-cyanophenyl)-2-{[2-(3-fluorophenyl)ethyl]amino}(3-pyridyl))carboxamide]	1890
Cn1cc(-c2nc(NCCc3cccc(F)c3)c(C(=O)NC[C@H]3CCC(=O)N3CCCNC(=O)OC(C)(C)C)cc2Cl)cn1 [N-[((2R)-1-{3-[(tert-butoxy)carbonylamino]propyl}-5-oxopyrrolidin-2-yl)methyl](5-chloro-2-{[2-(3-fluorophenyl)ethyl]amino}-6-(1-methylpyrazol-4-yl)(3-pyridyl))carboxamide]	443
CNC(=O)[C@H](N)CCNC(=O)c1ccc(-c2ccccc2C#N)nc1NCCc1cccc(F)c1 [(2R)-2-amino-4-[(6-(2-cyanophenyl)-2-{[2-(3-fluorophenyl)ethyl]amino}(3-pyridyl))carbonylamino]-N-methylbutanamide]	12900
CC(C)(C)OC(=O)NCc1ccc(CNC(=O)c2ccc(-c3ccccc3C#N)nc2NCCc2cccc(F)c2)nc1 [N-[(5-{[(tert-butoxy)carbonylamino]methyl}(2-pyridyl))methyl](6-(2-cyanophenyl)-2-{[2-(3-fluorophenyl)ethyl]amino}(3-pyridyl))carboxamide]	68600
N#Cc1ccccc1-c1ccc(C(=O)NCCCO)c(NCCc2cccc(F)c2)n1 [(6-(2-cyanophenyl)-2-{[2-(3-fluorophenyl)ethyl]amino}(3-pyridyl))-N-(3-hydroxypropyl)carboxamide]	318
NCCCNc1cccc(CNC(=O)c2ccc(-c3cn[nH]c3)nc2NCCc2cccc(F)c2)n1 [N-({6-[(3-aminopropyl)amino](2-pyridyl)}methyl)(2-{[2-(3-fluorophenyl)ethyl]amino}-6-pyrazol-4-yl(3-pyridyl))carboxamide]	18
CC(C)C[C@H](CNC(=O)c1ccc(-c2ccccc2C#N)nc1NCCc1cccc(F)c1)NC(=O)CO [N-((1R)-1-{[(6-(2-cyanophenyl)-2-{[2-(3-fluorophenyl)ethyl]amino}(3-pyridyl))carbonylamino]methyl}-3-methylbutyl)-2-hydroxyacetamide]	1170
N#Cc1ccccc1-c1ccc(C(=O)NCc2cccnc2)c(NCC(O)c2cccc(F)c2)n1 (centres unmarked) [(6-(2-cyanophenyl)-2-{[2-(3-fluorophenyl)-2-hydroxyethyl]amino}(3-pyridyl))-N-(3-pyridylmethyl)carboxamide]	339
(2-{[2-(2-oxoimidazolidinyl)ethyl]amino}-6-phenyl(3-pyridyl))-N-(3-pyridylmethyl)carboxamide	70600
CC(C)(C)OC(=O)NCC(=O)N1CC[C@@H]1CNC(=O)c1ccc(-c2cn[nH]c2)nc1NCCc1cccc(F)c1 [N-[((2R)-1-{2-[(tert-butoxy)carbonylamino]acetyl}azetidin-2-yl)methyl](2-{[2-(3-fluorophenyl)ethyl]amino}-6-pyrazol-4-yl(3-pyridyl))carboxamide]	2990
O=C(NCc1cccnc1)c1ccc(-c2cccs2)nc1NCCc1cc(F)cc(F)c1 [(2-{[2-(3,5-difluorophenyl)ethyl]amino}-6-(2-thienyl)(3-pyridyl))-N-(3-pyridylmethyl)carboxamide]	97
Cn1cc(-c2nc(NCCc3cccc(F)c3)c(C(=O)NCc3cccnc3)cc2Cl)cn1 [(5-chloro-2-{[2-(3-fluorophenyl)ethyl]amino}-6-(1-methylpyrazol-4-yl)(3-pyridyl))-N-(3-pyridylmethyl)carboxamide]	21
N#Cc1ccc(-c2ccc(C(=O)NCc3cccnc3)c(NCCc3cccc(F)c3)n2)s1 [(6-(5-cyano(2-thienyl))-2-{[2-(3-fluorophenyl)ethyl]amino}(3-pyridyl))-N-(3-pyridylmethyl)carboxamide]	280
C[C@H](CNC(=O)c1cc(F)c(-c2cnn(C)c2)nc1NCCc1cccc(F)c1)NC(=O)[C@H](CO)NC(=O)OC(C)(C)C	2260
N#Cc1ccccc1-c1ccc(C(=O)NCC(CN)C(N)=O)c(NCCc2cccc(F)c2)n1 (centres unmarked) [N-(3-amino-2-carbamoylpropyl)(6-(2-cyanophenyl)-2-{[2-(3-fluorophenyl)ethyl]amino}(3-pyridyl))carboxamide]	6650
CC(C)(C)OC(=O)N[C@H](CO)C(=O)N1CC[C@@H]1CNC(=O)c1ccc(-c2ccccc2C#N)nc1NCCc1cccc(F)c1 [N-[(1R)-2-((2R)-2-{[(6-(2-cyanophenyl)-2-{[2-(3-fluorophenyl)ethyl]amino}(3-pyridyl))carbonylamino]methyl}azetidinyl)-1-(hydroxymethyl)-2-oxoethyl](tert-butoxy)carboxamide]	439
O=C(NCc1cc[nH]n1)c1ccc(-c2cn[nH]c2)nc1NCCc1cccc(F)c1 [(2-{[2-(3-fluorophenyl)ethyl]amino}-6-pyrazol-4-yl(3-pyridyl))-N-(pyrazol-3-ylmethyl)carboxamide]	34
CC(C)(C)OC(=O)NCC(=O)N1CCC[C@@H]1CNC(=O)c1cc(F)c(-c2ccccc2C#N)nc1NCCc1cccc(F)c1 [N-[((2R)-1-{2-[(tert-butoxy)carbonylamino]acetyl}pyrrolidin-2-yl)methyl](6-(2-cyanophenyl)-5-fluoro-2-{[2-(3-fluorophenyl)ethyl]amino}(3-pyridyl))carboxamide]	2790
N#Cc1ccccc1-c1nc(NCCc2cccc(F)c2)c(C(=O)NCc2cccnc2)cc1C#N [(5-cyano-6-(2-cyanophenyl)-2-{[2-(3-fluorophenyl)ethyl]amino}(3-pyridyl))-N-(3-pyridylmethyl)carboxamide]	318
C[C@@H](N)CNC(=O)c1cc(F)c(-c2cn[nH]c2)nc1NCCc1cccc(F)c1 [N-((2R)-2-aminopropyl)(5-fluoro-2-{[2-(3-fluorophenyl)ethyl]amino}-6-pyrazol-4-yl(3-pyridyl))carboxamide]	443
